Reference: patent US11000033B2, “Ketone or oxime compound, and herbicide” (NISSAN CHEMICAL CORPORATION, priority 2014, dated 2021)

Key:
Monochoria vaginalis = test: Test Example 1: herbicidal activity, application before weed generation in submerged conditions (symbol C); format: in vivo; conditions: application herbicide amount 320 g/ha
Method in brief: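 Paddy pre-emergence test. Formulated emulsion, water-diluted to a predetermined rate, is applied to floodwater on sowing day; rice transplanted at 2.5 leaves. Effect read at 3 weeks on a 0–5 herbicidal-ratio scale.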

Avena fatua = test: Test Example 4: herbicidal effect by soil treatment (symbol I); format: in vivo; conditions: application herbicide amount 320 g/ha
Method in brief: (§1)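 Seeds were sown in sterilized diluvial soil, covered with about 1.5 cm of soil, and the soil surface was sprayed with a water-diluted emulsion of the compound at a predetermined rate. Plants grew in a greenhouse at 25° C. to 30° C.; effects were scored visually 3 weeks after application.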

Alopecurus myosuroides = test: Test Example 4: herbicidal effect by soil treatment (symbol J); format: in vivo; conditions: application herbicide amount 320 g/ha
Method in brief: as §1

corn = test: Test Example 5: effect on crop by foliage application, plastic box (symbol c); format: in vivo; conditions: 320 g/ha, 3 weeks after application
Method in brief: (§2)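 In a plastic box 7 cm deep filled with sterilized diluvial soil, seeds of crops and weeds such as Digitaria ciliaris, Avena fatua and Amaranthus retroflexus are sown in spots and covered with about 1.5 cm of soil before greenhouse growth at 25–30° C.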

Lolium multiflorum Lam. = test: Test Example 5: herbicidal effect by foliage application, plastic box (symbol K); format: in vivo; conditions: 320 g/ha, 3 weeks after application
Method in brief: (§3)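 Visual herbicidal score, taken three weeks post-application, of seedlings sprayed on the foliage with water-diluted emulsion at a predetermined amount; plants were 14 days old, greenhouse-raised at 25° C. to 30° C.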

rapeseed = test: Test Example 5: effect on crop by foliage application, plastic box (symbol g); format: in vivo; conditions: 320 g/ha, 3 weeks after application
Method in brief: as §2

Leptochloa chinensis = test: Test Example 3: herbicidal effect by foliage application, Wagner pot (symbol D); format: in vivo; conditions: application herbicide amount 320 g/ha
Method in brief: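 Steps: fill pot with alluvial soil; add water to 0.1–0.5 cm depth; sow weed and rice seed; grow 14 days at 25–30 °C; spray diluted emulsion over the leaves; rate effect after 3 weeks.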

Chenopodium album [1] = test: Test Example 5: herbicidal effect by foliage application, plastic box (symbol O); format: in vivo; conditions: 320 g/ha, 3 weeks after application
Method in brief: as §3

Veronica persica = test: Test Example 4: herbicidal effect by soil treatment (symbol R); format: in vivo; conditions: application herbicide amount 320 g/ha
Method in brief: as §1

Abutilon theophrasti = test: Test Example 5: herbicidal effect by foliage application, plastic box (symbol M); format: in vivo; conditions: 320 g/ha, 3 weeks after application
Method in brief: as §3

[2] = system: Echinochloa crus-galli var. crus-galli; test: Test Example 5: herbicidal effect by foliage application, plastic box (symbol H); format: in vivo; conditions: 320 g/ha, 3 weeks after application
Method in brief: as §3

Apera spica-venti = test: Test Example 4: herbicidal effect by soil treatment (symbol L); format: in vivo; conditions: application herbicide amount 320 g/ha
Method in brief: as §1

Chenopodium album [3] = test: Test Example 4: herbicidal effect by soil treatment (symbol O); format: in vivo; conditions: application herbicide amount 320 g/ha
Method in brief: as §1

transplanted rice plant = test: Test Example 1: effect on crop, application before weed generation in submerged conditions (symbol a); format: in vivo; conditions: application herbicide amount 320 g/ha
Method in brief: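 Alluvial soil pots flooded to 4 cm water, sown with Echinochloa oryzacola, Scirpus juncoides and Monochoria vaginalis, then transplanted with 2.5 leaf stage rice seedlings; pre-emergence application. Greenhouse 25° C. to 30° C.; scored 0–5 by herbicidal ratio 3 weeks after application.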

Stellaria media [4] = test: Test Example 4: herbicidal effect by soil treatment (symbol P); format: in vivo; conditions: application herbicide amount 320 g/ha
Method in brief: as §1

Stellaria media [5] = test: Test Example 5: herbicidal effect by foliage application, plastic box (symbol P); format: in vivo; conditions: 320 g/ha, 3 weeks after application
Method in brief: as §3

Setaria viridis = test: Test Example 4: herbicidal effect by soil treatment (symbol G); format: in vivo; conditions: application herbicide amount 320 g/ha
Method in brief: as §1

Amaranthus retroflexus = test: Test Example 5: herbicidal effect by foliage application, plastic box (symbol N); format: in vivo; conditions: 320 g/ha, 3 weeks after application
Method in brief: as §3

CC(CC1CC(O)=C(c2c(C)cc(C)cc2C)C1=O)=NOC(C)(C)C (centres unmarked) [1-053]
Herbicidal effect grade, C: Monochoria vaginalis (Monochoria vaginalis): 0 (Herbicidal ratio of 5% or lower (almost no effect))
I (Avena fatua) herbicidal effect grade (Avena fatua): 0 (Herbicidal ratio of 5% or lower (almost no effect))
J (Alopecurus myosuroides) herbicidal effect grade (Alopecurus myosuroides): 3 (Herbicidal ratio of 40% or higher and lower than 70%)
c: corn, effect on crop grade (corn): 3 (Herbicidal ratio of 40% or higher and lower than 70%)
K: Lolium multiflorum Lam., herbicidal effect grade (Lolium multiflorum Lam.): 5 (Herbicidal ratio of 90% or more (almost completely withered))
g: rapeseed, effect on crop grade (rapeseed): 4 (Herbicidal ratio of 70% or higher and lower than 90%)
herbicidal effect on D (Leptochloa chinensis), grade 0-5 (Leptochloa chinensis): 5 (Herbicidal ratio of 90% or more (almost completely withered))
O: Chenopodium album, herbicidal effect grade (Chenopodium album [1]): 1 (Herbicidal ratio of 5% or higher and lower than 20%)
R (Veronica persica) herbicidal effect grade (Veronica persica): 0 (Herbicidal ratio of 5% or lower (almost no effect))
M: Abutilon theophrasti, herbicidal effect grade (Abutilon theophrasti): 0 (Herbicidal ratio of 5% or lower (almost no effect))
H: Echinochloa crus-galli var. crus-galli, herbicidal effect grade [2]: 4 (Herbicidal ratio of 70% or higher and lower than 90%)
L (Apera spica-venti) herbicidal effect grade (Apera spica-venti): 3 (Herbicidal ratio of 40% or higher and lower than 70%)
O (Chenopodium album) herbicidal effect grade (Chenopodium album [3]): 0 (Herbicidal ratio of 5% or lower (almost no effect))
Effect grade on crop, a: transplanted rice plant (transplanted rice plant): 5 (Herbicidal ratio of 90% or more (almost completely withered))
P (Stellaria media) herbicidal effect grade (Stellaria media [4]): 0 (Herbicidal ratio of 5% or lower (almost no effect))
P: Stellaria media, herbicidal effect grade (Stellaria media [5]): 0 (Herbicidal ratio of 5% or lower (almost no effect))
melting point: 145 to 147 °C
G (Setaria viridis) herbicidal effect grade (Setaria viridis): 4 (Herbicidal ratio of 70% or higher and lower than 90%)
N: Amaranthus retroflexus, herbicidal effect grade (Amaranthus retroflexus): 0 (Herbicidal ratio of 5% or lower (almost no effect))

CC(CC1CC(O)=C(c2c(C)cc(C)cc2C)C1=O)=NO (centres unmarked) [1-058]
Herbicidal effect grade, C: Monochoria vaginalis (Monochoria vaginalis): 0 (Herbicidal ratio of 5% or lower (almost no effect))
I (Avena fatua) herbicidal effect grade (Avena fatua): 1 (Herbicidal ratio of 5% or higher and lower than 20%)
J (Alopecurus myosuroides) herbicidal effect grade (Alopecurus myosuroides): 5 (Herbicidal ratio of 90% or more (almost completely withered))
c: corn, effect on crop grade (corn): 4 (Herbicidal ratio of 70% or higher and lower than 90%)
K: Lolium multiflorum Lam., herbicidal effect grade (Lolium multiflorum Lam.): 5 (Herbicidal ratio of 90% or more (almost completely withered))
g: rapeseed, effect on crop grade (rapeseed): 4 (Herbicidal ratio of 70% or higher and lower than 90%)
herbicidal effect on D (Leptochloa chinensis), grade 0-5 (Leptochloa chinensis): 5 (Herbicidal ratio of 90% or more (almost completely withered))
O: Chenopodium album, herbicidal effect grade (Chenopodium album [1]): 0 (Herbicidal ratio of 5% or lower (almost no effect))
R (Veronica persica) herbicidal effect grade (Veronica persica): 0 (Herbicidal ratio of 5% or lower (almost no effect))
M: Abutilon theophrasti, herbicidal effect grade (Abutilon theophrasti): 4 (Herbicidal ratio of 70% or higher and lower than 90%)
H: Echinochloa crus-galli var. crus-galli, herbicidal effect grade [2]: 5 (Herbicidal ratio of 90% or more (almost completely withered))
L (Apera spica-venti) herbicidal effect grade (Apera spica-venti): 4 (Herbicidal ratio of 70% or higher and lower than 90%)
O (Chenopodium album) herbicidal effect grade (Chenopodium album [3]): 0 (Herbicidal ratio of 5% or lower (almost no effect))
Effect grade on crop, a: transplanted rice plant (transplanted rice plant): 5 (Herbicidal ratio of 90% or more (almost completely withered))
P (Stellaria media) herbicidal effect grade (Stellaria media [4]): 0 (Herbicidal ratio of 5% or lower (almost no effect))
P: Stellaria media, herbicidal effect grade (Stellaria media [5]): 0 (Herbicidal ratio of 5% or lower (almost no effect))
melting point: 95 to 98 °C
G (Setaria viridis) herbicidal effect grade (Setaria viridis): 5 (Herbicidal ratio of 90% or more (almost completely withered))
N: Amaranthus retroflexus, herbicidal effect grade (Amaranthus retroflexus): 1 (Herbicidal ratio of 5% or higher and lower than 20%)

CC(CC1CC(O)=C(c2c(C)cc(C)cc2C)C1=O)=NOc1ccccc1 (centres unmarked) [1-057]
Herbicidal effect grade, C: Monochoria vaginalis (Monochoria vaginalis): 2 (Herbicidal ratio of 20% or higher and lower than 40%)
I (Avena fatua) herbicidal effect grade (Avena fatua): 0 (Herbicidal ratio of 5% or lower (almost no effect))
J (Alopecurus myosuroides) herbicidal effect grade (Alopecurus myosuroides): 4 (Herbicidal ratio of 70% or higher and lower than 90%)
c: corn, effect on crop grade (corn): 0 (Herbicidal ratio of 5% or lower (almost no effect))
K: Lolium multiflorum Lam., herbicidal effect grade (Lolium multiflorum Lam.): 5 (Herbicidal ratio of 90% or more (almost completely withered))
g: rapeseed, effect on crop grade (rapeseed): 4 (Herbicidal ratio of 70% or higher and lower than 90%)
herbicidal effect on D (Leptochloa chinensis), grade 0-5 (Leptochloa chinensis): 3 (Herbicidal ratio of 40% or higher and lower than 70%)
O: Chenopodium album, herbicidal effect grade (Chenopodium album [1]): 0 (Herbicidal ratio of 5% or lower (almost no effect))
R (Veronica persica) herbicidal effect grade (Veronica persica): 0 (Herbicidal ratio of 5% or lower (almost no effect))
M: Abutilon theophrasti, herbicidal effect grade (Abutilon theophrasti): 1 (Herbicidal ratio of 5% or higher and lower than 20%)
H: Echinochloa crus-galli var. crus-galli, herbicidal effect grade [2]: 4 (Herbicidal ratio of 70% or higher and lower than 90%)
L (Apera spica-venti) herbicidal effect grade (Apera spica-venti): 4 (Herbicidal ratio of 70% or higher and lower than 90%)
Effect grade on crop, a: transplanted rice plant (transplanted rice plant): 4 (Herbicidal ratio of 70% or higher and lower than 90%)
P (Stellaria media) herbicidal effect grade (Stellaria media [4]): 0 (Herbicidal ratio of 5% or lower (almost no effect))
P: Stellaria media, herbicidal effect grade (Stellaria media [5]): 0 (Herbicidal ratio of 5% or lower (almost no effect))
melting point: 149 to 151 °C
G (Setaria viridis) herbicidal effect grade (Setaria viridis): 4 (Herbicidal ratio of 70% or higher and lower than 90%)
N: Amaranthus retroflexus, herbicidal effect grade (Amaranthus retroflexus): 0 (Herbicidal ratio of 5% or lower (almost no effect))

CON=CCC1CC(O)=C(c2c(C)cc(C)cc2C)C1=O (centres unmarked) [1-050]
Herbicidal effect grade, C: Monochoria vaginalis (Monochoria vaginalis): 3 (Herbicidal ratio of 40% or higher and lower than 70%)
I (Avena fatua) herbicidal effect grade (Avena fatua): 0 (Herbicidal ratio of 5% or lower (almost no effect))
J (Alopecurus myosuroides) herbicidal effect grade (Alopecurus myosuroides): 0 (Herbicidal ratio of 5% or lower (almost no effect))
c: corn, effect on crop grade (corn): 0 (Herbicidal ratio of 5% or lower (almost no effect))
K: Lolium multiflorum Lam., herbicidal effect grade (Lolium multiflorum Lam.): 5 (Herbicidal ratio of 90% or more (almost completely withered))
g: rapeseed, effect on crop grade (rapeseed): 4 (Herbicidal ratio of 70% or higher and lower than 90%)
herbicidal effect on D (Leptochloa chinensis), grade 0-5 (Leptochloa chinensis): 4 (Herbicidal ratio of 70% or higher and lower than 90%)
O: Chenopodium album, herbicidal effect grade (Chenopodium album [1]): 0 (Herbicidal ratio of 5% or lower (almost no effect))
M: Abutilon theophrasti, herbicidal effect grade (Abutilon theophrasti): 3 (Herbicidal ratio of 40% or higher and lower than 70%)
H: Echinochloa crus-galli var. crus-galli, herbicidal effect grade [2]: 5 (Herbicidal ratio of 90% or more (almost completely withered))
L (Apera spica-venti) herbicidal effect grade (Apera spica-venti): 0 (Herbicidal ratio of 5% or lower (almost no effect))
O (Chenopodium album) herbicidal effect grade (Chenopodium album [3]): 0 (Herbicidal ratio of 5% or lower (almost no effect))
Effect grade on crop, a: transplanted rice plant (transplanted rice plant): 4 (Herbicidal ratio of 70% or higher and lower than 90%)
P (Stellaria media) herbicidal effect grade (Stellaria media [4]): 0 (Herbicidal ratio of 5% or lower (almost no effect))
P: Stellaria media, herbicidal effect grade (Stellaria media [5]): 0 (Herbicidal ratio of 5% or lower (almost no effect))
melting point: 96 to 108 °C
G (Setaria viridis) herbicidal effect grade (Setaria viridis): 4 (Herbicidal ratio of 70% or higher and lower than 90%)
N: Amaranthus retroflexus, herbicidal effect grade (Amaranthus retroflexus): 0 (Herbicidal ratio of 5% or lower (almost no effect))
